# In patent US20090298707A1, “SPARSE MATRIX SYSTEM AND METHOD FOR IDENTIFICATION OF SPECIFIC LIGANDS OR TARGETS” (priority 2008, published 2009):
# Assays:
# [1] = tested on: immobilized S. aureus cells; test: Fluorescence microscopy binding of labeled peptides to immobilized bacteria, S. aureus; set-up: species or system Staphylococcus aureus; details: for Binding to immobilized S. aureus relative to peptides of the original pilot library: refined libraries, fluorescence images; for Binding to S. aureus (fluorescent staining): 25 μM fluorescein-labeled peptide, 10 minutes, immobilized cells
# Protocol: Peptide samples were prepared at a concentration of 25 μM for screening against a variety of organisms by exposing immobilized bacteria to labeled peptides. For bacterial cell binding assays, cells were grown overnight, washed, and immobilized in a polylysine-coated 96-well plate. Fluorescein-labeled peptide samples were applied to immobilized bacteria, incubated for 10 minutes and washed extensively to remove unbound peptide. Samples were visualized by fluorescence microscopy. For each peptide, both brightfield and fluorescence images were collected, and camera and microscope settings were not altered between images. The locations of cells and background regions were determined using the brightfield images; those regions were then selected in the fluorescence images for quantitation of pixel values for determination of relative fluorescence intensities (represented as bacterial fluorescence/background fluorescence) using the GNU Image Manipulation Program (The GIMP, see, e.g., www.gimp.org).
# The following bacterial species and strains were used: Lactobacillus casei (strain), Escherichia coli (W3110), Enterococcus faecium (strain), Streptococcus mutans (UA140), Streptococcus mitis (ATCC 903), Streptococcus gordonii (NY101), Pseudomonas aeruginosa(strain K), Klebsiella pneumoniae (KAY2026), Myxococcus xanthus (Strains DK1622, wildtype, and difA, exopolysaccharide deficient^21), Micrococcus luteus (strain MS2, a community isolate), Staphylococcus epidermidis (strain), and Staphylococcus aureus(strains, and AM1, a methicillin/oxacillin-resistant community isolate).
# For isolation of community-acquired S. aureus and M. luteus strains (strains MS2 and AM1), swabs were collected from the nostrils of several volunteers and streaked on Brain-Heart Infusion (BHI) agar and incubated at 37° C. overnight. Yellow colonies were isolated and typed (Microbial ID, Inc., Newark, Del.). Antibiotic resistance was assayed by plating on BHI in the presence of various antibiotics. Commercially available antibiotic susceptibility test disks were used to assay for oxacillin resistance (BD Biosciences), according to the manufacturer's instructions. Due to the difficulty of obtaining methicillin, oxacillin resistance was used as a proxy for methicillin resistance in isolated strains.^22
# The peptides comprising these two refined libraries were synthesized, labeled, and screened against immobilized S. aureus cells exactly as for the original pilot library.
# To examine the specificities of the peptides identified in this experiment, a diverse panel of various strains of bacteria was assembled, consisting of Lactobacillus casei, Escherichia coli, Enterococcus faecalis, Streptococcus mutans, Streptococcus mitis, Streptococcus gordonii, Pseudomonas aeruginosa, Klebsiella pneumoniae, Micrococcus luteus (strain MS2), Staphylococcus epidermidis, and two strains of Staphylococcus aureus: a methicillin/oxacillin-sensitive community isolate and our methicillin/oxacillin-resistant community isolate of (strain AM1). Peptides 3C and 4D from the original pilot library were screened for binding against these bacteria by fluorescence microscopy, and images were analyzed as before.
# [2] = per amino acid; cited from earlier work
# S. aureus AM1 = test: Pulldown binding assay, Langmuir isotherm fit, S. aureus; set-up: species or system Staphylococcus aureus; details: for Langmuir Affinity (Ka): association constant from Langmuir isotherm fit, fluorescein-labeled peptide 0-100 μM; for Monolayer Concentration (N): maximum surface concentration from Langmuir fit
# Source text: (§1) To investigate whether the changes in the observed level of binding were due to changes in the affinities or avidities of the refined peptides for cell surfaces, binding curves were generated for selected peptides and fit to the Langmuir isotherm (where possible), the simplest model describing binding to surfaces (peptides showing either complex or nonspecific binding isotherms were excluded from this analysis).
# (§2) Measurements were taken of the absorbance of the labeled peptide at 488 nm (the peak absorbance of the fluorescein label) before and after exposure to the cells. The amount of peptide bound was calculated by comparing the ratio of the final (Af) and initial (Ai) absorbances to the initial concentration (C0)[Cbound=C0(1−(Af/Ai))]. Bacterial surface area per sample was calculated using a stage micrometer to determine the average cell diameter for each species (1.0+/−0.1 μm for S. aureus AM1, 2.7+/−0.1 μm for M. luteus MS2), treating individual cells as discrete spheres. Average cell concentration per unit OD600 was calculated using a hemocytometer.
# (§3) Plots were then generated of the amount of peptide bound per m^2 of bacterial surface area vs. the concentration of unbound peptide at equilibrium. Where possible, the resulting isotherms were fit to the Langmuir isotherm (P/A=(KaNCeq)/(1+KaCeq), where P/A represents the molar amount of peptide bound per unit of bacterial surface area, Ka is the association constant of the peptide with the bacterial surface (L/Mol), N is the maximum surface concentration (mol/m^2), and Ceq is the molar concentration of unbound peptide at equilibrium) (Calis et al. (1995) Pharm Res 12(7): 1072-1076). Data plots and curvefits were obtained using Kaleidagraph (Synergy Software).
# M. luteus MS2 = test: Pulldown binding assay, Langmuir isotherm fit, M. luteus; set-up: species or system Micrococcus luteus; details: for Langmuir Affinity (Ka): association constant from Langmuir isotherm fit; for Monolayer Concentration (N): maximum surface concentration from Langmuir fit
# Source text: as §1, §2, §3
# [3] = Confocal laser scanning microscopy of labeled peptides on tooth sections; type: binding; details: sectioned human tooth, CLSM
# Source text: The fluorescein-labeled peptides in the initial pilot library were pooled and screened by Confocal Laser Scanning Microscopy as follows. The quadrants of the library were collected into four pools of 9 peptides each. Peptides were screened by exposing the pooled, 5(6)-carboxyfluorescein-labeled peptides to sections taken from human teeth (extracted during normal clinical practice), followed by visualization of the samples by Confocal Laser Scanning Microscopy (CLSM).
compound,measurement,setting,value
"In-plane refinement C4: in-plane refined library peptide, SEQ ID NO:57 (LVKDVLERV; synthetic in-plane refinement library peptide C4)",Binding to immobilized S. aureus relative to peptides of the original pilot library,[1],enhanced binding
C[C@H](N)C(=O)O [Ala],"Hydrophobicity (Fauchere and Pliska, 1983)",[2],0.31
"Pilot Library 3D: pilot library 9-mer, SEQ ID NO:29; became D1 of the in-plane matrix (SEQ ID NO:58) (VASYVATQV; synthetic pilot library peptide D3)",Langmuir Affinity (Ka),S. aureus AM1,6 ± 1 M^−1 × 10000
same,Monolayer Concentration (N),S. aureus AM1,0.18 ± 0.2 Mol/m^2 × 0.0001
same,Langmuir Affinity (Ka),M. luteus MS2,10 ± 7 M^−1 × 10000
same,Monolayer Concentration (N),M. luteus MS2,0.021 ± 0.004 Mol/m^2 × 0.0001
same,Binding to S. aureus (fluorescent staining),[1],some of the brightest unique staining
"Orthogonal refinement 2C: orthogonal refined library peptide, SEQ ID NO:71 (IVSQVIQNL; synthetic orthogonal refinement library peptide C2)",Langmuir Affinity (Ka),S. aureus AM1,1.1 ± 0.3 M^−1 × 10000
same,Monolayer Concentration (N),S. aureus AM1,7 ± 1 Mol/m^2 × 0.0001
same,Langmuir Affinity (Ka),M. luteus MS2,1.4 ± 0.4 M^−1 × 10000
same,Monolayer Concentration (N),M. luteus MS2,0.12 ± 0.03 Mol/m^2 × 0.0001
AMKDAMERM (synthetic peptide with tissue-specific binding to tooth enamel and enamel-proximal region of dentino-enamel junction) [Pilot Library 4F],Binding to dentin,[3],no obvious binding
same,Binding to tooth enamel and enamel side of the dentin-enamel junction,[3],clear binding
CC(C)C[C@H](N)C(=O)O [Leu],"Hydrophobicity (Fauchere and Pliska, 1983)",[2],1.7
CSCC[C@H](N)C(=O)O [Met],"Hydrophobicity (Fauchere and Pliska, 1983)",[2],1.23
O=C(O)[C@@H]1CCCN1 [Pro],"Hydrophobicity (Fauchere and Pliska, 1983)",[2],0.72
N[C@@H](Cc1c[nH]c2ccccc12)C(=O)O [Trp],"Hydrophobicity (Fauchere and Pliska, 1983)",[2],2.25
N[C@@H](Cc1ccccc1)C(=O)O [Phe],"Hydrophobicity (Fauchere and Pliska, 1983)",[2],1.79
NCC(=O)O [Gly],"Hydrophobicity (Fauchere and Pliska, 1983)",[2],0
C[C@@H](O)[C@H](N)C(=O)O [Thr],"Hydrophobicity (Fauchere and Pliska, 1983)",[2],0.26
N[C@@H](Cc1c[nH]cn1)C(=O)O [His],"Hydrophobicity (Fauchere and Pliska, 1983)",[2],0.13
CC[C@H](C)[C@H](N)C(=O)O [Ile],"Hydrophobicity (Fauchere and Pliska, 1983)",[2],1.8
NCCCC[C@H](N)C(=O)O [Lys],"Hydrophobicity (Fauchere and Pliska, 1983)",[2],−0.99
N=C(N)NCCC[C@H](N)C(=O)O [Arg],"Hydrophobicity (Fauchere and Pliska, 1983)",[2],−1.01
NC(=O)C[C@H](N)C(=O)O [Asn],"Hydrophobicity (Fauchere and Pliska, 1983)",[2],−0.6
"Pilot Library 4C: pilot library 9-mer, SEQ ID NO:24; became A4 of the in-plane matrix (SEQ ID NO:49) (LIKDILERL; synthetic pilot library peptide C4)",Langmuir Affinity (Ka),S. aureus AM1,5 ± 1 M^−1 × 10000
same,Monolayer Concentration (N),S. aureus AM1,0.23 ± 0.2 Mol/m^2 × 0.0001
same,Langmuir Affinity (Ka),M. luteus MS2,1 ± 0.6 M^−1 × 10000
same,Monolayer Concentration (N),M. luteus MS2,0.10 ± 0.04 Mol/m^2 × 0.0001
same,Binding to S. aureus (fluorescent staining),[1],some of the brightest unique staining
"Orthogonal refinement 2A: orthogonal refined library peptide, SEQ ID NO:63 (IVVILSQQN; synthetic orthogonal refinement library peptide A2)",Langmuir Affinity (Ka),S. aureus AM1,13 ± 4 M^−1 × 10000
same,Affinity relative to initial hits / parent peptide of the pilot library,S. aureus AM1; in words,comparable affinity
same,Nmax relative to pilot library hits,S. aureus AM1; in words,significant increase
same,Monolayer Concentration (N),S. aureus AM1,0.14 ± 0.01 Mol/m^2 × 0.0001
same,Langmuir Affinity (Ka),M. luteus MS2,1.6 ± 0.7 M^−1 × 10000
same,KA relative to peptides from the parent library,M. luteus MS2; in words,no significant changes
same,Nmax relative to peptides from the parent library,M. luteus MS2; in words,no significant changes
same,Monolayer Concentration (N),M. luteus MS2,0.5 ± 0.2 Mol/m^2 × 0.0001
N[C@@H](CCC(=O)O)C(=O)O [Glu],"Hydrophobicity (Fauchere and Pliska, 1983)",[2],−0.64
"In-plane refinement C1: in-plane refined library peptide, SEQ ID NO:54 (LVSYVLTQV; synthetic in-plane refinement library peptide C1)",Binding to immobilized S. aureus relative to peptides of the original pilot library,[1],enhanced binding
N[C@@H](CC(=O)O)C(=O)O [Asp],"Hydrophobicity (Fauchere and Pliska, 1983)",[2],−0.77
"In-plane refinement B2: in-plane refined library peptide, SEQ ID NO:51 (IVSQVIQNL; synthetic in-plane refinement library peptide B2)",Binding to immobilized S. aureus relative to peptides of the original pilot library,[1],enhanced binding
"Orthogonal refinement 2B: orthogonal refined library peptide, SEQ ID NO:67 (IVVSQQILN; synthetic orthogonal refinement library peptide B2)",Langmuir Affinity (Ka),M. luteus MS2,0.4 ± 0.3 M^−1 × 10000
same,Monolayer Concentration (N),M. luteus MS2,0.5 ± 0.3 Mol/m^2 × 0.0001
"In-plane refinement C2: in-plane refined library peptide, SEQ ID NO:55 (LVSQVLQNV; synthetic in-plane refinement library peptide C2)",Binding to immobilized S. aureus relative to peptides of the original pilot library,[1],enhanced binding
"In-plane refinement B4: in-plane refined library peptide, SEQ ID NO:53 (IVKDVIERL; synthetic in-plane refinement library peptide B4)",Binding to immobilized S. aureus relative to peptides of the original pilot library,[1],enhanced binding
N[C@@H](Cc1ccc(O)cc1)C(=O)O [Tyr],"Hydrophobicity (Fauchere and Pliska, 1983)",[2],0.96
CC(C)[C@H](N)C(=O)O [Val],"Hydrophobicity (Fauchere and Pliska, 1983)",[2],1.22
"In-plane refinement 3A: in-plane refined library peptide, SEQ ID NO:48 (LIERILQNL; synthetic in-plane refinement library peptide A3)",Affinity relative to initial hits / parent peptide of the pilot library,S. aureus AM1; in words,increased affinity
same,Langmuir Affinity (Ka),M. luteus MS2,8 ± 3 M^−1 × 10000
same,Nmax relative to peptides from the parent library,M. luteus MS2; in words,sharp reduction
same,Monolayer Concentration (N),M. luteus MS2,0.0047 ± 0.006 Mol/m^2 × 0.0001
same,Binding to S. aureus (fluorescent staining),[1],binding was seen only to the methicillin/oxacilin-resistant strain of S. aureus
same,Binding to immobilized S. aureus relative to peptides of the original pilot library,[1],enhanced binding
"Pilot Library E4: pilot library 9-mer, SEQ ID NO:36 (AMKDAMERM; synthetic pilot library peptide E4)",Binding to dentin,[3],No significant staining
same,Binding to tooth enamel and enamel side of the dentin-enamel junction,[3],clear fluorescent staining
NC(=O)CC[C@H](N)C(=O)O [Gln],"Hydrophobicity (Fauchere and Pliska, 1983)",[2],−0.22
